# Patent US4542137A, “Alkylaminodesoxy-1.4;3.6-dianhydrohexitol nitrates substituted by purine bases and pharmaceutical compositions” (priority 1980, dated 1985)
# Test system: mongrel dogs
# Experiment: circulatory pharmacological effectiveness on narcotised dogs, intravenous
# Format: in vivo, dog
# Conditions: dog i.v. ISDN/9c 1, 1d 0.5 mg/kg
structure (smiles),measurement,setting,value
"Cn1c(=O)c2c(ncn2CCCN[C@H]2CO[C@H]3[C@@H]2OC[C@@H]3O[N+](=O)[O-])n(C)c1=O [Example 1d, 5-(3-Theophyllin-7-ylpropyl)-amino-5-desoxy-1.4;3.6-dianhydro-L-iditol 2-nitrate]",APdiast: diastolic aorta pressure,2 min,67.5 mm.Hg
same,APsyst: systolic aorta pressure,2 min,107.8 mm.Hg
same,BFFem: blood flow in the A. femoralis referred to 20 kg body weight,2 min,42.6 mL/min
same,HF: heart frequency,2 min,145.7
same,"HLL: heart capacity left, referred to 20 kg body weight",2 min,0.51 W
same,"HLR: heart capacity right, referred to 20 kg body weight",2 min,70.9 mW
same,"HZV: heart minute volume, referred to 20 kg body weight",2 min,2.94 L/min
same,LVEDP: end diastolic pressure in the left ventricle,2 min,3.85 mm.Hg
same,"SV: beat volume, referred to 20 kg body weight",2 min,21.9 mL
same,"WAP: pulmonalis resistance, referred to 20 kg body weight",2 min,0.35 U
same,"WFem: moralis resistance, referred to 20 kg body weight",2 min,0.28 KU
same,"WTP: total peripheral resistance, referred to 20 kg body weight",2 min,3.73 U
same,dp/dt: rate of pressure increase in the left ventricle,2 min,2915.6 mm.Hg/sec
same,APdiast: diastolic aorta pressure,5 min,77.8 mm.Hg
same,APsyst: systolic aorta pressure,5 min,119.4 mm.Hg
same,BFFem: blood flow in the A. femoralis referred to 20 kg body weight,5 min,40.8 mL/min
same,HF: heart frequency,5 min,131.2
same,"HLL: heart capacity left, referred to 20 kg body weight",5 min,0.47 W
same,"HLR: heart capacity right, referred to 20 kg body weight",5 min,58.2 mW
same,"HZV: heart minute volume, referred to 20 kg body weight",5 min,2.40 L/min
same,LVEDP: end diastolic pressure in the left ventricle,5 min,4.78 mm.Hg
same,"SV: beat volume, referred to 20 kg body weight",5 min,19.6 mL
same,"WAP: pulmonalis resistance, referred to 20 kg body weight",5 min,0.38 U
same,"WFem: moralis resistance, referred to 20 kg body weight",5 min,0.32 KU
same,"WTP: total peripheral resistance, referred to 20 kg body weight",5 min,5.16 U
same,dp/dt: rate of pressure increase in the left ventricle,5 min,2671.9 mm.Hg/sec
same,APdiast: diastolic aorta pressure,7 min,75.9 mm.Hg
same,APsyst: systolic aorta pressure,7 min,122.8 mm.Hg
same,BFFem: blood flow in the A. femoralis referred to 20 kg body weight,7 min,42.7 mL/min
same,HF: heart frequency,7 min,119.5
same,"HLL: heart capacity left, referred to 20 kg body weight",7 min,0.47 W
same,"HLR: heart capacity right, referred to 20 kg body weight",7 min,56.8 mW
same,"HZV: heart minute volume, referred to 20 kg body weight",7 min,2.40 L/min
same,LVEDP: end diastolic pressure in the left ventricle,7 min,5.16 mm.Hg
same,"SV: beat volume, referred to 20 kg body weight",7 min,21.3 mL
same,"WAP: pulmonalis resistance, referred to 20 kg body weight",7 min,0.37 U
same,"WFem: moralis resistance, referred to 20 kg body weight",7 min,0.30 KU
same,"WTP: total peripheral resistance, referred to 20 kg body weight",7 min,5.10 U
same,dp/dt: rate of pressure increase in the left ventricle,7 min,2662.5 mm.Hg/sec
same,APdiast: diastolic aorta pressure,10 min,74.6 mm.Hg
same,APsyst: systolic aorta pressure,10 min,124.7 mm.Hg
same,BFFem: blood flow in the A. femoralis referred to 20 kg body weight,10 min,46.2 mL/min
same,HF: heart frequency,10 min,110.2
same,"HLL: heart capacity left, referred to 20 kg body weight",10 min,0.47 W
same,"HLR: heart capacity right, referred to 20 kg body weight",10 min,57.1 mW
same,"HZV: heart minute volume, referred to 20 kg body weight",10 min,2.38 L/min
same,LVEDP: end diastolic pressure in the left ventricle,10 min,4.69 mm.Hg
same,"SV: beat volume, referred to 20 kg body weight",10 min,22.9 mL
same,"WAP: pulmonalis resistance, referred to 20 kg body weight",10 min,0.41 U
same,"WFem: moralis resistance, referred to 20 kg body weight",10 min,0.28 KU
same,"WTP: total peripheral resistance, referred to 20 kg body weight",10 min,5.10 U
same,dp/dt: rate of pressure increase in the left ventricle,10 min,2465.6 mm.Hg/sec
same,APdiast: diastolic aorta pressure,15 min,75.9 mm.Hg
same,APsyst: systolic aorta pressure,15 min,126.0 mm.Hg
same,BFFem: blood flow in the A. femoralis referred to 20 kg body weight,15 min,48.3 mL/min
same,HF: heart frequency,15 min,107.7
same,"HLL: heart capacity left, referred to 20 kg body weight",15 min,0.44 W
same,"HLR: heart capacity right, referred to 20 kg body weight",15 min,53.8 mW
same,"HZV: heart minute volume, referred to 20 kg body weight",15 min,2.26 L/min
same,"SV: beat volume, referred to 20 kg body weight",15 min,22.0 mL
same,"WAP: pulmonalis resistance, referred to 20 kg body weight",15 min,0.43 U
same,"WFem: moralis resistance, referred to 20 kg body weight",15 min,0.28 KU
same,"WTP: total peripheral resistance, referred to 20 kg body weight",15 min,5.51 U
same,dp/dt: rate of pressure increase in the left ventricle,15 min,2465.6 mm.Hg/sec
same,APdiast: diastolic aorta pressure,20 min,78.7 mm.Hg
same,APsyst: systolic aorta pressure,20 min,127.9 mm.Hg
same,BFFem: blood flow in the A. femoralis referred to 20 kg body weight,20 min,51.5 mL/min
same,HF: heart frequency,20 min,104.0
same,"HLL: heart capacity left, referred to 20 kg body weight",20 min,0.45 W
same,"HLR: heart capacity right, referred to 20 kg body weight",20 min,52.8 mW
same,"HZV: heart minute volume, referred to 20 kg body weight",20 min,2.24 L/min
same,LVEDP: end diastolic pressure in the left ventricle,20 min,5.62 mm.Hg
same,"SV: beat volume, referred to 20 kg body weight",20 min,22.3 mL
same,"WAP: pulmonalis resistance, referred to 20 kg body weight",20 min,0.41 U
same,"WFem: moralis resistance, referred to 20 kg body weight",20 min,0.27 KU
same,"WTP: total peripheral resistance, referred to 20 kg body weight",20 min,5.71 U
same,dp/dt: rate of pressure increase in the left ventricle,20 min,2428.1 mm.Hg/sec
same,APdiast: diastolic aorta pressure,25 min,79.7 mm.Hg
same,APsyst: systolic aorta pressure,25 min,127.5 mm.Hg
same,BFFem: blood flow in the A. femoralis referred to 20 kg body weight,25 min,52.9 mL/min
same,"HLL: heart capacity left, referred to 20 kg body weight",25 min,0.45 W
same,"HLR: heart capacity right, referred to 20 kg body weight",25 min,50.9 mW
same,"HZV: heart minute volume, referred to 20 kg body weight",25 min,2.24 L/min
same,LVEDP: end diastolic pressure in the left ventricle,25 min,5.44 mm.Hg
same,"SV: beat volume, referred to 20 kg body weight",25 min,22.3 mL
same,"WAP: pulmonalis resistance, referred to 20 kg body weight",25 min,0.44 U
same,"WFem: moralis resistance, referred to 20 kg body weight",25 min,0.27 KU
same,"WTP: total peripheral resistance, referred to 20 kg body weight",25 min,5.78 U
same,dp/dt: rate of pressure increase in the left ventricle,25 min,2353.1 mm.Hg/sec
same,APdiast: diastolic aorta pressure,30 min,81.6 mm.Hg
same,APsyst: systolic aorta pressure,30 min,130.9 mm.Hg
same,BFFem: blood flow in the A. femoralis referred to 20 kg body weight,30 min,54.1 mL/min
same,HF: heart frequency,30 min,101.2
same,"HLL: heart capacity left, referred to 20 kg body weight",30 min,0.45 W
same,"HLR: heart capacity right, referred to 20 kg body weight",30 min,50.5 mW
same,"HZV: heart minute volume, referred to 20 kg body weight",30 min,2.18 L/min
same,LVEDP: end diastolic pressure in the left ventricle,30 min,5.72 mm.Hg
same,"SV: beat volume, referred to 20 kg body weight",30 min,22.1 mL
same,"WAP: pulmonalis resistance, referred to 20 kg body weight",30 min,0.45 U
same,"WFem: moralis resistance, referred to 20 kg body weight",30 min,0.26 KU
same,"WTP: total peripheral resistance, referred to 20 kg body weight",30 min,6.10 U
same,APdiast: diastolic aorta pressure,40 min,83.4 mm.Hg
same,APsyst: systolic aorta pressure,40 min,133.1 mm.Hg
